Measured values published in the NIST ThermoML archive (doi:10.1016/j.jct.2012.12.003).

Tests used:
[1] = xn = mol fraction of the nth substance listed; conditions: 101.3 kPa, Liquid, Vibrating tube method
[2] = 101.3 kPa, Liquid, Vibrating tube method

CC(O)CO (centres undefined) [1,2-propanediol] + CO
mass density [kg/m3], [1]
Conditions	x1 = 0.1008	x1 = 0.1385	x1 = 0.2582	x1 = 0.3	x1 = 0.4851	x1 = 0.5476	x1 = 0.6991	x1 = 0.7595	x1 = 0.8991	x1 = 1
293.15 K	838.277	853.548	895.155	908.078	954.527	967.74	995.074	1004.49	1024	1036.17
298.15 K	833.79	849.127	890.917	903.893	950.534	963.799	991.242	1000.7	1020.29	1032.52
303.15 K	829.274	844.68	886.644	899.676	946.507	959.825	987.37	996.862	1016.54	1028.83
308.15 K	824.731	840.206	882.346	895.43	942.448	955.815	983.47	992.997	1012.75	1025.09
313.15 K	820.164	835.7	878.013	891.151	938.356	951.772	979.532	989.094	1008.92	1021.31
318.15 K	815.56	831.158	873.648	886.837	934.226	947.684	975.556	985.157	1005.05	1017.49

CCCCCCO [hexan-1-ol]
[2]
Conditions	mass density [kg/m3]
293.15 K	818.749
298.15 K	815.188
303.15 K	811.6
308.15 K	807.984
313.15 K	804.339
318.15 K	800.657

CCCCCCO [hexan-1-ol] + CC(O)CO
[1], x2 = 0
Conditions	mass density [kg/m3]
293.15 K	818.749
298.15 K	815.188
303.15 K	811.6
308.15 K	807.984
313.15 K	804.339
318.15 K	800.657

CO [methanol]
[2]
Conditions	mass density [kg/m3]
293.15 K	791.494
298.15 K	786.794
303.15 K	782.071
308.15 K	777.326
313.15 K	772.55
318.15 K	767.744

CO [methanol] + CC(O)CO
[1], x2 = 0
Conditions	mass density [kg/m3]
293.15 K	791.494
298.15 K	786.794
303.15 K	782.071
308.15 K	777.326
313.15 K	772.55
318.15 K	767.744

CCCCCCCCCO [nonan-1-ol]
[2]
Conditions	mass density [kg/m3]
293.15 K	827.667
298.15 K	824.254
303.15 K	820.815
308.15 K	817.362
313.15 K	813.885
318.15 K	810.385

CCCCCCCCCO [nonan-1-ol] + CC(O)CO
mass density [kg/m3], [1]
Conditions	x2 = 0	x2 = 0.1056	x2 = 0.225	x2 = 0.3433	x2 = 0.3773	x2 = 0.5551	x2 = 0.6746	x2 = 0.7695	x2 = 0.7978	x2 = 0.899
293.15 K	827.667	836.639	848.601	862.671	867.271	895.783	920.803	945.697	953.952	989.338
298.15 K	824.254	833.182	845.095	859.126	863.71	892.163	917.143	942.013	950.266	985.641
303.15 K	820.815	829.698	841.567	855.554	860.127	888.513	913.452	938.296	946.543	981.914
308.15 K	817.362	826.204	838.022	851.964	856.523	884.841	909.736	934.554	942.791	978.153
313.15 K	813.885	822.685	834.458	848.353	852.901	881.148	906.002	930.783	939.015	974.358
318.15 K	810.385	819.146	830.872	844.72	849.257	877.428	902.236	926.985	935.207	970.53

CCCCCCCCO [octan-1-ol]
[2]
Conditions	mass density [kg/m3]
293.15 K	825.093
298.15 K	821.647
303.15 K	818.177
308.15 K	814.686
313.15 K	811.171
318.15 K	807.629

CCCCCCCCO [octan-1-ol] + CC(O)CO
[1], x2 = 0
Conditions	mass density [kg/m3]
293.15 K	825.093
298.15 K	821.647
303.15 K	818.177
308.15 K	814.686
313.15 K	811.171
318.15 K	807.629

CCCO [propan-1-ol]
[2]
Conditions	mass density [kg/m3]
293.15 K	803.527
298.15 K	799.528
303.15 K	795.493
308.15 K	791.426
313.15 K	787.32
318.15 K	783.164

CCCO [propan-1-ol] + CC(O)CO
[1], x2 = 0
Conditions	mass density [kg/m3]
293.15 K	803.527
298.15 K	799.528
303.15 K	795.493
308.15 K	791.426
313.15 K	787.32
318.15 K	783.164
